In the supplement of paper PMC10307832:

Experiments:
Experiment in all cases: relative viability (nuclei count vs DMSO), 5 days (fraction); higher = more cells survive
[1] = compound: C/C(=N\NC(=S)N1CCC1)/C2=CC=CC=N2 + CCNC(=O)c1noc(-c2cc(C(C)C)c(O)cc2O)c1-c1ccc(CN2CCOCC2)cc1 [Luminespib] (partner 0.01 µM)
Outline: (§1)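 Nuclei were stained with Hoechst during a one-step fixation (final 0.05% Triton X-100, 1% formaldehyde, 1 ug/ml Hoechst) carried out 5 days after dosing, then counted on 4× images. The cells, lung cancer lines in 1536-well plates, had been dosed by pin tool the day after seeding with one drug alone or a fixed anchor-drug dose plus five library-drug doses (not always all listed) in √10 steps. Relative viability is the nuclei count in treated wells divided by that in vehicle wells, and each value is the median of duplicate plates.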

[2] = compound: C/C(=N\NC(=S)N1CCC1)/C2=CC=CC=N2 + CC(=O)c1c(C)c2cnc(Nc3ccc(N4CCNCC4)cn3)nc2n(C2CCCC2)c1=O [Palbociclib] (partner 0.5 µM)
Outline: as §1

[3] = compound: C/C(=N\NC(=S)N1CCC1)/C2=CC=CC=N2 + CS(=O)(=O)N1CCN(Cc2cc3nc(-c4cccc5[nH]ncc45)nc(N4CCOCC4)c3s2)CC1 [Pictilisib] (partner 1 µM)
Outline: as §1

[4] = compound: C/C(=N\NC(=S)N1CCC1)/C2=CC=CC=N2 + COc1cccc2cc(-c3nc([C@H]4CC[C@H](C(=O)O)CC4)n4ncnc(N)c34)[nH]c12 [OSI-027] (partner 0.5 µM)
Outline: as §1

Cell Line	relative viability ([1]; first compound 0.05 µM)	relative viability ([1]; first compound 0.1581 µM)	relative viability ([1]; first compound 0.5 µM)	relative viability ([1]; first compound 1.581 µM)	relative viability ([1]; first compound 5 µM)	relative viability ([2]; first compound 0.05 µM)	relative viability ([2]; first compound 0.1581 µM)	relative viability ([2]; first compound 0.5 µM)	relative viability ([2]; first compound 1.581 µM)	relative viability ([2]; first compound 5 µM)	relative viability ([3]; first compound 0.05 µM)	relative viability ([3]; first compound 0.1581 µM)	relative viability ([3]; first compound 0.5 µM)	relative viability ([3]; first compound 1.581 µM)	relative viability ([3]; first compound 5 µM)	relative viability ([4]; first compound 0.05 µM)	relative viability ([4]; first compound 0.1581 µM)	relative viability ([4]; first compound 0.5 µM)	relative viability ([4]; first compound 1.581 µM)	relative viability ([4]; first compound 5 µM)
LK-2	0.16	0.147	0.158	0.188	0.131	0.0858	0.0843	0.0965	0.0618	0.112	0.146	0.263	0.268	0.198	0.238	0.141	0.174	0.177	0.167	0.142
NCI-H661	0.246	0.221	0.212	0.202	0.219	0.284	0.252	0.251	0.231	0.223	0.222	0.239	0.232	0.237	0.21	0.243	0.208	0.169	0.188	0.19
HCC-366						0.065	0.0358	0.0237	0.0228	0.026	0.0297	0.0246	0.029	0.0344	0.0355	0.0452	0.0275	0.0339	0.0481	0.0279
HOP-62	0.215	0.12	0.151	0.129	0.119	0.0827	0.234	0.0724	0.107	0.0858	0.0606	0.0715	0.0848	0.0699	0.0611	0.104	0.0907	0.101	0.111	0.102
NCI-H1944	0.527	0.265	0.143	0.124	0.113	0.253	0.3	0.166	0.148	0.129	0.229	0.305	0.241	0.182	0.182	0.197	0.192	0.168	0.133	0.12
SW 1573	0.0763	0.116	0.104	0.0921	0.0745	0.0872	0.139	0.131	0.0878	0.0783	0.102	0.0856	0.0985	0.104	0.0817	0.0449	0.0562	0.134	0.065	0.0544
LU99A	0.15	0.116	0.152	0.164	0.148	0.14	0.312	0.129	0.127	0.121	0.12	0.106	0.0914	0.146	0.122	0.186	0.182	0.161	0.162	0.177
NCI-H647	0.0621	0.051	0.0851	0.0853	0.0804	0.0551	0.0636	0.0877	0.0726	0.0666	0.0857	0.0882	0.104	0.0844	0.15	0.0818	0.107	0.109	0.117	0.0913
A-427	0.153	0.147	0.139	0.155	0.155	0.194	0.224	0.205	0.174	0.181	0.109	0.142	0.129	0.116	0.125	0.172	0.154	0.135	0.165	0.125
COR-L 105	0.227	0.247	0.259	0.167	0.265	0.353	0.358	0.349	0.316	0.318	0.318	0.346	0.325	0.279	0.254	0.251	0.329	0.338	0.255	0.248
NCI-H441	0.205	0.158	0.251	0.181	0.164	0.13	0.112	0.124	0.0967	0.105	0.127	0.101	0.115	0.108	0.128	0.181	0.173	0.16	0.143	0.168
NCI-H2126	0.201	0.201	0.198	0.178	0.225	0.249	0.34	0.212	0.207	0.209	0.247	0.267	0.254	0.227	0.216	0.206	0.225	0.21	0.212	0.205
EBC-1											0.164	0.205	0.187	0.116	0.14					
NCI-H1648						0.258	0.301	0.322	0.352	0.337						0.309	0.279	0.351	0.314	0.307
SW 900	0.162	0.144	0.106	0.124	0.184	0.171	0.136	0.134	0.175	0.197						0.0629	0.1	0.0605	0.0573	0.119
NCI-H596	0.433	0.673	0.246	0.222	0.235						0.251	0.257	0.223	0.212	0.277	0.259	0.253	0.281	0.226	0.263
NCI-H1563	0.464	0.435	0.472	0.429	0.467						0.593	0.519	0.614	0.561	0.584	0.5	0.541	0.506	0.541	0.542
NCI-H1299											0.0583	0.0875	0.103	0.0673	0.0511					
NCI-H522	0.353	0.375	0.369	0.412	0.49	0.432	0.376	0.284	0.381	0.412							0.341	0.495		0.561
A549											0.0548	0.0774	0.0703	0.0543	0.0578					
IA-LM											0.0879	0.0508	0.0707	0.0558	0.0544					
Calu-6											0.109	0.139	0.152	0.141	0.132					
